Experiment: Viscosity of HPMC K4M solution with trospium chloride (Brookfield viscometer)
Type: physicochemical
Settings: S18 spindle
Protocol: Applicants have discovered that a certain interaction occurs between polarized oxygen atom containing-polymers and positively charged molecules, such as trospium chloride, which is exemplified by the dramatic change in viscosity of, for instance, an HPMC K4M solution when a drug in solution is added to it. An HPMC K4M solution was prepared and diluted to 2% by weight (or “w/w”) with either a trospium chloride solution or water. […] Without being bound to any particular theory, it is believed that this interaction leads to a slowed release of the active agent, and thus for the first time controlled release, once-daily formulations of highly water-soluble compounds can be made with relative ease.
In order to examine the interaction of trospium chloride with HPMC K4M polymer, viscosity of HPMC K4M was measured at a polymer concentration of 2% w/w at room temperature. Also examined was a 2% w/w solution of HPMC K4M containing trospium chloride at a final concentration of 16.7% w/w.
Viscosity was measured using a Brookfield viscometer fitted with an S18 spindle. Viscosity was measured at two spindle speeds. […] The contribution of the trospium chloride solution viscosity on the viscosity of the HPMC K4M solution is negligible.

O=C(O[C@H]1C[C@H]2CC[C@@H](C1)[N+]21CCCC1)C(O)(c1ccccc1)c1ccccc1 [trospium chloride]
viscosity of the HPMC K4M solution in the presence of the drug as compared to HPMC K4M solution without the drug (2% w/w HPMC K4M, trospium chloride 16.7% w/w, room temperature, two spindle speeds): more than doubled
contribution of the trospium chloride solution viscosity on the viscosity of the HPMC K4M solution (Brookfield viscometer): negligible

From patent US20060210625A1, “Sustained release of positively charged pharmacologically active molecules from a matrix containing polymers with polarized oxygen atoms” (Shire Laboratories, Inc., priority 2003, published 2006)
